Assay results published in PMC12030678, “Investigations of In Vitro Anti-Acetylcholinesterase, Anti-Diabetic, Anti-Inflammatory, and Anti-Cancer Efficacy of Garden Cress (Lepidium sativum Linn.) Seed Extracts, as Well as In Vivo Biochemical and Hematological Assays” (Pharmaceutics, 2025).
Converted amounts (≈) assume the structure as drawn.

Key:
α-amylase enzyme = biological target: T1, α-amylase enzyme (Sus scrofa, UniProt P00690); experiment: α-Amylase inhibition (DNSA method); format: biochemical; details: at 100 µg/mL
T1 sequence (P00690 16-511): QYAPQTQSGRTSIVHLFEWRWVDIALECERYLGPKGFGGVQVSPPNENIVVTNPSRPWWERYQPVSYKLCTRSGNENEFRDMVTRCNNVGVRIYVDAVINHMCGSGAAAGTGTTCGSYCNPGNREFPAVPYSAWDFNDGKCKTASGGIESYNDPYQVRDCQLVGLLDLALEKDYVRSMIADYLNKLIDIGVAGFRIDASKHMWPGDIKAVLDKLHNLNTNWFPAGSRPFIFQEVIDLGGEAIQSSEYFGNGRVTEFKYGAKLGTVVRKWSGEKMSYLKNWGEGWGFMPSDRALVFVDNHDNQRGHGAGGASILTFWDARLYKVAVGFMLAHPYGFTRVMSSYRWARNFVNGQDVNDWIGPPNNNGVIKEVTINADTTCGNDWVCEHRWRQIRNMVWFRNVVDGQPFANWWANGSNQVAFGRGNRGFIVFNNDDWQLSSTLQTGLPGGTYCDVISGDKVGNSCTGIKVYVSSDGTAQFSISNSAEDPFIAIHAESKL
Procedure: Anti-Alzheimer's activity
In this study, we assessed the inhibition percentage of the acetylcholinesterase (AChE)
This assay involved calculating the inhibition percentage (%) of α-amylase enzyme using
The mixture was then left at
temperature and diluted with 5 mL of distilled water.

α-glucosidase enzyme = α-glucosidase enzyme (Saccharomyces cerevisiae, UniProt P53341); experiment: α-Glucosidase inhibition (pNPG); format: biochemical; details: at 100 µg/mL
[1] = Iron reducing power (IRP); details: in vitro iron reducing power
Procedure: The iron reducing power was determined as µg/mL using the method proposed by Oyaizu
In brief, 1ml of the tested sample (at each concentration) was combined with
1mL of 200mM sodium phosphate buffer (pH 6.6) and 1mL of 1% potassium ferricyanide.
The mixture was then incubated at 50°C for 20 minutes, followed by the addition of 1mL of trichloroacetic acid (10%). After centrifugation at 2000rpm for 10 minutes, the upper layer solution (2.5 mL) was mixed with 2.5 mL of double deionized water and 1mL of fresh ferric chloride (0.1%). The absorbance was measured at 700nm against a blank prepared without the sample. Ascorbic acid was used at the same concentrations as a standard. A high absorbance at 700nm indicates a higher reducing power in the reaction mixture.

[2] = Total antioxidant capacity (TAC), phosphomolybdenum method; details: in vitro total antioxidant capacity
Procedure: The total antioxidant capacity (TAC) was determined by analyzing the green phosphate/Mo5+
[38]. Samples (at each concentration) were mixed with a reagent solution containing 0.3 N
sulfuric acid, 28 mM sodium phosphate, and 4 mM ammonium molybdate. Methanol (80%)
was used in place of the sample for the blank. The tubes were sealed and incubated in a
boiling water bath for 90 minutes. After cooling to room temperature, the absorbance was
standard. The antioxidant capacity was expressed as mg gallic acid equivalent per gram

[3] = ABTS radical scavenging activity
Procedure: (§1) Antioxidant, scavenging, anti-Alzheimer, anti-diabetic, anti-arthritic, anti-inflammatory, cytotoxic, and enzymatic activities were assessed according to the proposed methods detailed in the Supplementary File. All biological activities were assessed in triplicate for all studied extracts. […]
An antioxidant substance capable of donating a hydrogen atom to a solution containing DPPH- can reduce the stable free radical, causing the solution to change color from violet to pale yellow. […]
Two milliliters of a DPPH […]
solution (100 µM) in ethanol were mixed with 2 mL of the sample (at each concentration). […]
For the control, 2 mL of ethanol was added instead of the sample and run simultaneously with the test. Ascorbic acid was used at the same concentrations as a positive control. […]
(7 mM) and potassium persulfate solution (2.4 mM). The working solution was prepared by mixing the two stock solutions in equal quantities and allowing them to react at room temperature in a dark place for 14 hours. The solution was then diluted by mixing 1 mL of ABTS solution with 60 mL of methanol to obtain an absorbance of 0.706 ± 0.01 units at 734 nm using a spectrophotometer. […] The tested samples (at each concentration) were allowed to react with 1 mL of the ABTS solution, and the absorbance was taken at 734 nm after 7 minutes using a spectrophotometer. […]

[4] = Nitric oxide (NO) radical scavenging activity
Procedure: Antioxidant, scavenging, anti-Alzheimer, anti-diabetic, anti-arthritic, anti-inflammatory, cytotoxic, and enzymatic activities were assessed according to the proposed methods detailed in the Supplementary File. All biological activities were assessed in triplicate for all studied extracts.

[5] = DPPH radical scavenging activity
Procedure: as §1
The 1,1-Diphenyl-2-picryl-hydrazyl (DPPH) radical scavenging activities were evaluated using the method described by Rahman et al.. An antioxidant substance capable of donating a hydrogen atom to a solution containing DPPH- can reduce the stable free radical, causing the solution to change color from violet to pale yellow. The remaining DPPH- radical was quantified by measuring the intensity of a light-purple colored DPPH methanol solution in the visible range at 518 nm using a spectroscopic method. Two milliliters of a DPPH solution (100 µM) in ethanol were mixed with 2 mL of the sample (at each concentration).
The reaction mixture for each concentration was thoroughly vortexed and then incubated in the dark at room temperature for 30 minutes. The absorbance was then measured spectrophotometrically at 518 nm against a blank (ethanol). For the control, 2 mL of ethanol was added instead of the sample and run simultaneously with the test. Ascorbic acid was used at the same concentrations as a positive control. Percent inhibition of the DPPH free radical was calculated. […]

Caco-2 cells = experiment: Cytotoxic activity, MTT assay, Caco-2; format: cell-based; details: Homo sapiens, 48 h, read-out: IC50 (μg/mL) Caco-2
Procedure: as §1
Cytotoxic activity and Enzymatic Assay
It will be assayed against human hepatocellular carcinoma (HepG-2), colon cancer (Caco-2), and lung cancer (A549) cells using 3-(4,5-dimethythiazol-2-yl)-2,5-diphenyl tetrazolium bromide (MTT) assay by determining the optical density (OD) at 570 nm according to the […]
(§2) The cells were dispensed in a 96-well sterile […]
different concentrations of 10 μL of each compound or doxorubicin (positive control, in DMSO) for 48 h in a serum free medium prior to the MTT assay. Subsequently, the media were carefully removed, and 40 μL of MTT (2.5 mg/mL) was added to each well and then incubated for an additional 4 h. Purple formazan dye crystals were solubilized by the addition of 200 μL of DMSO. The absorbance was measured at 570 nm using a SpectraMax Paradigm Multi-Mode microplate reader. The relative cell viability was expressed as the mean percentage of viable cells relative to the untreated control cells. All experiments were conducted in triplicate. Percent of the cell-growth inhibition (%) and the IC50 was calculated using IC50 calculation software. […]

caspase-3 = format: cell-based, human
Procedure: as §1
(§3) Cytotoxic activity and Enzymatic Assay […]
as §2
(§4) different concentrations of 10 μL of each compound or doxorubicin (positive control, in DMSO) for 48 h in a serum free medium prior to the MTT assay. […]
Activities of caspase-3 were measured by enzyme-linked immunosorbent assay (ELISA) using the Invitrogen caspase-3 (Active) (human) ELISA kit (96 tests) from Invitrogen Corporation, following the manufacturer's instructions. […]

Bcl-2 = format: cell-based, human
Procedure: as §1, §3, §2, §4
Corporation, following the manufacturer's instructions. Activities of Bcl-2 were measured using the Invitrogen Zymed Bcl-2 ELISA Kit (96 tests) from Invitrogen Corporation, following the manufacturer's instructions.

[6] = biological target: T2, 5-LOX enzyme (human recombinant) (Homo sapiens, UniProt P09917); experiment: 5-Lipoxygenase inhibition assay; format: biochemical; details: inhibition at 100 µg/mL
T2 construct: purchased Sigma-Aldrich 437996
T2 sequence (P09917 1-674): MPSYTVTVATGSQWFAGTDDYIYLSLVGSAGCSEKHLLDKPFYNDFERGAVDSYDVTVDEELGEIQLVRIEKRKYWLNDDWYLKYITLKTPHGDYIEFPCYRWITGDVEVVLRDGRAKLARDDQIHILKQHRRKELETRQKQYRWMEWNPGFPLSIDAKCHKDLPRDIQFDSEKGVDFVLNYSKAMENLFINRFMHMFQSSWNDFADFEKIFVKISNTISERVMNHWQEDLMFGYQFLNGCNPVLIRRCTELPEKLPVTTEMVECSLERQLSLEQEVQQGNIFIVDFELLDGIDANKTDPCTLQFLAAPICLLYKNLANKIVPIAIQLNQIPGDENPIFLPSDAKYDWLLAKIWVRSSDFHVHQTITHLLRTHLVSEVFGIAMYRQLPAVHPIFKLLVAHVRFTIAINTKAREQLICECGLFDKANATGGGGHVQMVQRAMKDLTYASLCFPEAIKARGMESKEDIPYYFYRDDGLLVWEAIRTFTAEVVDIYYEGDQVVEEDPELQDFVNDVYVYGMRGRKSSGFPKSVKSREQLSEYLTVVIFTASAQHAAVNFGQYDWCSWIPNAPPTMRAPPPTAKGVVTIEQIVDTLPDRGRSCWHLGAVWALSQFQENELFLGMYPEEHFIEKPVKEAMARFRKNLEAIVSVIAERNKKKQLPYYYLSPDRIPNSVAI
Procedure: different concentrations of 10 μL of each compound or doxorubicin (positive control, in DMSO) for 48 h in a serum free medium prior to the MTT assay. Subsequently, the media were carefully removed, and 40 μL of MTT (2.5 mg/mL) was added to each well and then incubated for an additional 4 h. […] The absorbance was measured at 570 nm using a SpectraMax Paradigm Multi-Mode microplate reader. The relative cell viability was expressed as the mean percentage of viable cells relative to the untreated control cells. […] Percent of the cell-growth inhibition (%) and the IC50 was calculated using IC50 calculation software.
Activities of caspase-3 were measured by enzyme-linked immunosorbent assay (ELISA) using the Invitrogen caspase-3 (Active) (human) ELISA kit (96 tests) from Invitrogen Corporation, following the manufacturer's instructions. Activities of Bcl-2 were measured using the Invitrogen Zymed Bcl-2 ELISA Kit (96 tests) from Invitrogen Corporation, following the manufacturer's instructions [52-54].

Sequence of α-glucosidase enzyme (P53341 whole entry): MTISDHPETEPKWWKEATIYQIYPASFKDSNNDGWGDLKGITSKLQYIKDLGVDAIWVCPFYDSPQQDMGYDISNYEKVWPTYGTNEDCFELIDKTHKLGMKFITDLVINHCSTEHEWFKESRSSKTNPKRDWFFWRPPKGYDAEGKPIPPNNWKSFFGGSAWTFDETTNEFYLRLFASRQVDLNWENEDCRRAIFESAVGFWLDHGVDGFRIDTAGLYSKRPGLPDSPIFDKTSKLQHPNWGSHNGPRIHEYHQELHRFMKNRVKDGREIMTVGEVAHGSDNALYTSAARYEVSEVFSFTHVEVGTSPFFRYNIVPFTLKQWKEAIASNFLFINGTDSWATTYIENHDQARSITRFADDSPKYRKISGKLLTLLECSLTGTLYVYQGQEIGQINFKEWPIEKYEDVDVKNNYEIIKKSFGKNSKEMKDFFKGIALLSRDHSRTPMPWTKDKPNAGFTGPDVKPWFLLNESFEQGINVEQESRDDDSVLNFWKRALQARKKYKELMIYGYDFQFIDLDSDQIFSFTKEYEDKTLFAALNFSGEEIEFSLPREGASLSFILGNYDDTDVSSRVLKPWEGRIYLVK

In the case of `C[C@H]1O[C@H](O[C@H]2[C@H](O)[C@@H](O)[C@@H](O[C@H]3[C@H](O)[C@@H](O)C(O)O[C@@H]3CO)O[C@@H]2CO)[C@H](O)[C@@H](O)[C@@H]1N[C@H]1C=C(CO)[C@@H](O)[C@H](O)[C@H]1O` (stereo partly drawn) [Acarbose], the “α-Amylase Inhibition (%)” value (α-amylase enzyme) is reported as 66.90 ± 0.10% and the “α-Glucosidase Inhibition (%)” value (α-glucosidase enzyme) is reported as 56.65 ± 0.10%.
With `O=C1O[C@H]([C@@H](O)CO)C(O)=C1O` [Ascorbic Acid] the “IRP” value [1] was 76.75 ± 0.13 µg/mL, the “TAC (mg Gallic Acid/g)” value [2] was 84.50 ± 0.13 mg Gallic Acid/g and the “IC50 (µg/mL) ABTS” value [3] was 3.80 ± 0.04 µg/mL (≈ 21.6 µM). For the same compound, the “Inhibition (%) ABTS” value ([3]; at 100 µg/mL) was 70.25 ± 0.11%, the “IC50 (µg/mL) NO” value [4] was 5.51 ± 0.02 µg/mL (≈ 31.3 µM) and the “Inhibition (%) NO” value ([4]; at 100 µg/mL) was 60.75 ± 0.11%. The “IC50 (µg/mL) DPPH” value [5] was 4.29 ± 0.03 µg/mL (≈ 24.4 µM) and the “Inhibition (%) DPPH” value ([5]; at 100 µg/mL) was 66.50 ± 0.11%.
With `COc1cccc2c1C(=O)c1c(O)c3c(c(O)c1C2=O)C[C@@](O)(C(=O)CO)C[C@@H]3O[C@H]1C[C@H](N)[C@H](O)[C@H](C)O1` [Doxorubicin] the IC50 (Caco-2 cells) was 33.3 µg/mL (≈ 61.2 µM), the “Caspase-3 (pg/mL) A549” value (caspase-3; treated A549 cells, DMSO control 88.67 ± 0.12) was 341.39 ± 0.46 pg/mL and the “Caspase-3 (pg/mL) Caco-2” value (caspase-3; treated Caco-2 cells, DMSO control 94.81 ± 0.14) was 365.02 ± 0.55 pg/mL. For the same compound, the “Caspase-3 (pg/mL) HepG-2” value (caspase-3; treated HepG-2 cells, DMSO control 108.79 ± 0.85) was 418.84 ± 3.27 pg/mL, the “Bcl-2 (ng/mL) A549” value (Bcl-2; treated A549 cells, DMSO control 12.58 ± 0.05) was 3.27 ± 0.01 ng/mL and the “Bcl-2 (ng/mL) Caco-2” value (Bcl-2; treated Caco-2 cells, DMSO control 5.74 ± 0.08) was 1.49 ± 0.02 ng/mL. For the same compound, the “Bcl-2 (ng/mL) HepG-2” value (Bcl-2; treated HepG-2 cells, DMSO control 11.15 ± 0.15) was 2.90 ± 0.04 ng/mL.
For `CC(c1cc2ccccc2s1)N(O)C(N)=O` (stereo not drawn) [Zileuton], the “5-LOX (%)” value [6] was 55.71 ± 0.11 (Zileuton) %.
